Measurements: US20240300945A1, “CLY SERIES COMPOUND, PREPARATION METHOD THEREFOR AND USE THEREOF IN PREPARATION OF DRUGS” (NANJING WELLBEST PHARMACEUTICAL CO., LTD, priority 2021, published 2024)

Key:
[1] = system: skin hair follicles and sebaceous glands of rats; experiment: Rat hair loss model: histopathological grading of skin hair follicles and sebaceous glands; type: in vivo, Wistar rats; conditions: 60 days, 10 rats per group; for number of rats with hair follicle and sebaceous gland grade +++: grade +++ (most severe); for number of rats with hair follicle and sebaceous gland grade ±: grade ± (lesions limited); for number of rats with hair follicle and sebaceous gland grade −: grade − (normal structure)
Excerpt: Wistar rats were, according to weights, randomly divided into the negative control group (75% ethanol for external use), model group (75% ethanol for external use), positive control group (external 5% minoxidil tincture), CLY-1 external treatment group (external 5% CLY-1 tincture), CLY-2 external treatment group (external 5% CLY-2 tincture), CLY-3 external treatment group (external 5% CLY-3 tincture), CLY-4 external treatment group (external 5% CLY-4 tincture), and CLY-5 external treatment group (external 5% CLY-5 tincture) according to their body weight CLY-8 external treatment group (external 5% CLY-8 tincture), CLY-11 external treatment group (external 5% CLY-11 tincture), CLY-19 external treatment group (external 5% CLY-19 tincture), CLY-36 external treatment group (external 5% CLY-36 tincture), CLY-39 external treatment group (external 5% CLY-39 tincture), CLY-1 intravenous injection group (2 mg/kg·d), CLY-3 intravenous injection group (2 mg/kg·d), CLY-4 intravenous injection group (2 mg/kg·d) CLY-5 intravenous injection group (2 mg/kg·d), CLY-8 intravenous injection group (2 mg/kg·d), CLY-11 intravenous injection group (2 mg/kg·d), CLY-19 intravenous injection group (2 mg/kg·d), CLY-36 intravenous injection group (2 mg/kg·d), and CLY-39 intravenous injection group (2 mg/kg·d), with 10 rats in each group. Before the experiment, an area of 4 cm×5 cm was selected on each rat on the back of the neck to remove hair as the observation area. In addition to the negative control group, rats were subcutaneously injected with testosterone propionate injection [5 ml/(kg·d)] once a day for 60 days to establish the androgenic alopecia (AGA) model. […] At the same time, the drug was applied to the observation area on the back of the rats in the corresponding drug group at the rate of 2 mL/(one time), twice a day, at an interval of 8 hours; Intravenous administration once a day. The negative control group and the model control group were smeared with 75% ethanol solution, 2 mL/(one rat per time), twice a day, for 60 days.
Took 10 hairs from the observation area on the back of each rat every 15 days after administration, and measured the hair length with a vernier caliper. After 60 days of administration, the skin of the experimental observation area was taken for routine tissue dehydration, paraffin embedding, HE staining, and light microscopy to observe the histopathological changes of the rat skin hair follicles and sebaceous glands. Semi-quantitative analysis was performed for each group. The grading criteria are as follows: the normal structure of dermal tissue cells, subcutaneous hair follicles, and sebaceous glands is marked as […]: no hyperplasia of dermal tissue is found, the lesions of hair follicles and sebaceous glands are limited, and no inflammation is found under the skin is marked as “+”: no obvious hyperplasia of dermal tissue is found, and the follicles are obviously cystic. No obvious hyperplasia of sebaceous glands is found, and no inflammation is found under the skin is marked as “+”: the dermal tissue has segmental hyperplasia, which is not obvious, A small number of hair follicles have cystic changes, and the sebaceous glands have mild hyperplasia and hypertrophy. There is no obvious inflammation under the skin, which is marked as “++”: the dermal tissue cells of the skin have different degrees of segmental hyperplasia, and some hair follicles have cystic changes, showing uneven size of hair follicles, and no cells around. The sebaceous glands have hyperplasia, and the nuclei in the proliferative glands are few. A few rats have mild inflammatory hyperplasia under the skin, which is marked as “+++”.

serum IL-4 = experiment: Mouse eczema model: serum IL-4 (ELISA); type: in vivo, C57BL/6 mice; conditions: after modeling, 0.1% cream for external use twice a day, 10 days (positive: aloxone)
Excerpt: SPF grade female C57BL/6 mice were purchased at the age of 8 weeks (0.02 kg), 6 in each group, and randomly divided into the blank control group, model group, positive drug group, CLY-1 treatment group (0.1% CLY-1 cream for external use), CLY-2 treatment group (0.1% CLY-2 cream for external use), CLY-3 treatment group (0.1% CLY-3 cream for external use), CLY-4 treatment group (0.1% CLY-4 cream for external use), CLY-8 treatment group (0.1% CLY-8 cream for external use), CLY-11 treatment group (0.1% CLY-11 cream for external use) CLY-19 treatment group (0.1% CLY-19 cream for external use), CLY-36 treatment group (0.1% CLY-36 cream for external use) and CLY-39 treatment group (0.1% CLY-39 cream for external use).
Model establishment: the normal control group mice were smeared with 75% ethanol 14.3 ul on both ears, while the model group, positive drug group and treatment group were smeared with 1 nmol/L carpotriol liniment 14.3 ul on both ears at a regular time every day, and then smeared with 20 g/L OVA 25 ul after air drying, once a day, for 12 days to make a model.
From 4 days after the start of modeling, applied the cream matrix on the ear skin of mice in the blank control group and the model group, applied aloxone on the ear skin of mice in the positive drug group, and applied the treatment cream on the ear skin of mice in each treatment group respectively, twice a day in the morning and evening, for 10 consecutive days, took photos every day, and recorded scores.
The thickness of mouse auricle was measured and recorded with ear thickness measuring instrument before and on the 14th day respectively. After the measurement on the 14th day, the mice were sacrificed. Blood was taken and serum was separated.
The enzyme-labeled plate was coated with rabbit anti-mouse interleukin (IL)-4 antibody, stayed at 4° C. overnight, and the reaction was stopped according to the instructions of the ELISA kit to detect the level of serum IL-4. ELISA kits were all purchased from Raybiotech, USA.

Row | SMILES | number of rats with hair follicle and sebaceous gland grade +++ ([1]; external 5% tincture) | number of rats with hair follicle and sebaceous gland grade +++ ([1]; intravenous 2 mg/kg·d) | number of rats with hair follicle and sebaceous gland grade ++ ([1]; external 5% tincture) | number of rats with hair follicle and sebaceous gland grade ++ ([1]; intravenous 2 mg/kg·d) | number of rats with hair follicle and sebaceous gland grade + ([1]; external 5% tincture) | number of rats with hair follicle and sebaceous gland grade + ([1]; intravenous 2 mg/kg·d) | number of rats with hair follicle and sebaceous gland grade ± ([1]; external 5% tincture) | number of rats with hair follicle and sebaceous gland grade ± ([1]; intravenous 2 mg/kg·d) | number of rats with hair follicle and sebaceous gland grade − ([1]; external 5% tincture) | number of rats with hair follicle and sebaceous gland grade − ([1]; intravenous 2 mg/kg·d) | IL-4 level in peripheral blood (serum IL-4) [pg/mL]
1 | CN1CCC[C@@H](N(C(=O)c2ccc(-n3nnc4cccnc43)cc2)c2ncccc2Cl)C1 [CLY-1, (R)-4-(3H-[1,2,3]triazolo[4,5-b]pyridin-3-yl)-N-(3-chloropyridin-2-yl)-N-(1-methylpiperidin-3-yl)benzamide] | 0 | 0 | 1 | 0 | 4 | 4 | 5 | 6 | 0 | 0 | 6.76
2 | CCN1CCC[C@@H](N(C(=O)c2ccc(-n3nnc4cccnc43)cc2)c2ncccc2Cl)C1 [CLY-2, (R)-4-(3H-[1,2,3]triazolo[4,5-b]pyridin-3-yl)-N-(3-chloropyridin-2-yl)-N-(1-ethylpiperidin-3-yl)benzamide] | 0 | 0 | 1 | 0 | 3 | 3 | 6 | 7 | 0 | 0 | 5.58
3 | CNC1CCCC(N(C(=O)c2ccc(-n3nnc4cccnc43)cc2)c2ncccc2Cl)C1 (centres unmarked) [CLY-3] | 0 | 0 | 1 | 1 | 5 | 4 | 4 | 5 | 0 | 0 | 7.32
4 | O=C(c1ccc(-n2nnc3cccnc32)cc1)N(c1ncccc1Cl)C1CCCC(O)C1 (centres unmarked) [CLY-4] | 0 | 0 | 3 | 1 | 4 | 5 | 3 | 4 | 0 | 0 | 7.51
5 | COC1CCCC(N(C(=O)c2ccc(-n3nnc4cccnc43)cc2)c2ncccc2Cl)C1 (centres unmarked) [CLY-5] | 0 | 0 | 0 | 0 | 4 | 2 | 6 | 8 | 0 | 0 | –
6 | O=C(c1ccc(-n2nnc3cccnc32)cc1)N(c1ncccc1Cl)[C@@H]1CCNC1 [CLY-8, (R)-4-(3H-[1,2,3]triazolo[4,5-b]pyridin-3-yl)-N-(3-chloropyridin-2-yl)-N-(pyrrolidin-3-yl)benzamide] | 0 | 0 | 0 | 0 | 3 | 2 | 7 | 8 | 0 | 0 | 5.53
7 | NC1CCCC(N(C(=O)c2ccc(-n3nnc4cccnc43)cc2)c2ncccc2Cl)C1 (centres unmarked) [CLY-11] | 0 | 0 | 1 | 1 | 4 | 3 | 5 | 6 | 0 | 0 | 6.45
8 | O=C(c1ccc(-c2ccccc2-c2nnn[nH]2)cc1)N(c1ncccc1Cl)[C@@H]1CCCNC1 [CLY-19] | 0 | 0 | 2 | 2 | 3 | 2 | 5 | 6 | 0 | 0 | 5.72
9 | Nc1cc(N2CCCCC2)nc(N)[n+]1[O-] [Positive control group, minoxidil, reference compound] | 1 | – | 3 | – | 4 | – | 2 | – | 0 | – | –
